# Source: patent publication US11844794B2, “Pharmaceutical compositions” (ADEPTIO PHARMACEUTICALS LIMITED, priority 2017, dated 2023)
# Entries after “also recorded” stand apart in the source; their conditions may differ. Read-outs that look alike come from different tables or passages of the source.
# Columns and labels:
# [1] = solid form stability in slurry / polymorphism by XRPD; type: physicochemical; settings: for crystalline form after stirring in slurry (XRPD): one week
# [2] = equilibrium aqueous solubility by HPLC; type: physicochemical
# Description: The aqueous solubilities of salts were measured by an equilibrium method in which an amount of the salt was weighed into a 2 ml vial equipped with a magnetic stirrer bar and water added. In cases where complete dissolution was observed, more material was added until the sample was exhausted. The slurry was then stirred for seven days before isolating the solids by centrifuge-filtration. The solids were analysed by XRPD and the filtrates were analysed by HPLC to determine the amount of (+)-alpha-dihydrotetrabenazine salt in solution. The solubilities were calculated against a calibration curve established for a (+)-alpha-dihydrotetrabenazine sample of known concentration.
# [3] = thermal gravimetric analysis (TGA) / thermal stability; settings: for TGA weight loss: 30-300° C. at 10° C./minute
# Description: Differential scanning calorimetry (DSC) was carried out on the sample “as is” using a Mettler DSC1 instrument. The sample was weighed I an aluminium pan, covered with a pierced lid, and then crimped and analysed from 30-300° C. at 10° C./minute.
# Thermal gravimetric analysis was performed on the sample “as is” using a Mettler 851^e TGA instrument. The sample was weighed in an alumina crucible and analysed from 30-300° C. at 10° C./minute.
# [4] = system: patients suffering from tardive dyskinesia; settings: cited from earlier work
# [5] = system: Tardive Dyskinesia sufferers; settings: Valbenazine 80 mg/day; cited from earlier work
# [6] = moisture-sorption analysis; type: physicochemical; settings: for moisture uptake: 25° C.
# Description: Moisture-sorption analysis was carried out using a Hiden IGA Sorp moisture-sorption analyser. […] The sample was then subjected to an isothermal (at 25° C.) adsorption scan from 40 to 90% relative humidity in steps of 10%. The sample was allowed to equilibrate to an asymptotic weight at each point for a maximum of four hours. […] An adsorption scan was then performed from 0 to 40% relative humidity inn steps of 10%. The sample was dried for two hours at 60° C. and 0% relative humidity, and the resulting solid was analysed by XRPD.
# [7] = system: non-amphetamine induced rats; assay: locomotor activity in rats without amphetamine induction, open field test; type: in vivo, rat; settings: Study 3, non-induced rats, 1 mg/kg
# Description: (§1) All animal experiments were carried out according to the National Institute of Health (NIH) guidelines for the care and use of laboratory animals, and approved by the National Animal Experiment Board, Finland. Male CD (Charles River Laboratories, Germany) at weight range of 200-250 g (165-200 g upon arrival) were used for the experiments. Animals were housed at a standard temperature (22±1° C.) and in a light-controlled environment (lights on from 7 am to 8 pm) with ad libitum access to food and water.
# (§2) Locomotor activity of the rats was tested in open field arena. The open field test was performed during the rat light cycle and under a normal lighting evenly distributed to the test chambers. The paths of the rats were recorded by activity monitor (Med. Associates Inc.).
# (§3) Dosing the vehicle, vehicle-amphetamine, (+)-α-DHTBZ or risperidone was done prior to LMA test. The rats were placed in the centre of the arena, and the path was recorded for 60 minutes.
# Animals were grouped as follows: • Group 1: 10 rats treated with Vehicle • Group 2: 10 rats treated with (+)-α-DHTBZ 2.5 mg/kg • Group 3: 10 rats treated with (+)-α-DHTBZ 5 mg/kg • Group 4: 10 rats treated with risperidone 1 mg/kg
# amphetamine-induced rats = assay: amphetamine-induced locomotor activity, open field test; type: in vivo, rat; settings: male CD rats
# Description: as §1, §2, §3
# Animals were grouped as follows: • Group 1: 10 rats treated with Vehicle (t=0 min) and Vehicle (t=30 min) • Group 2: 10 rats treated with Vehicle (t=0 min) and Amphetamine (t=30 min) • Group 3: 10 rats treated with (+)-α-DHTBZ 0.5 mg/kg (t=0 min) and Amphetamine (t=30 min) • Group 4: 10 rats treated with (+)-α-DHTBZ 1 mg/kg (t=0 min) and Amphetamine (t=30 min) • Group 5: 10 rats treated with (+)-α-DHTBZ 1.5 mg/kg (t=0 min) and Amphetamine (t=30 min) • Group 6: 10 rats treated with (+)-α-DHTBZ 2 mg/kg (t=0 min) and Amphetamine (t=30 min) • Group 7: 10 rats treated with risperidone 1 mg/kg (t=0 min) and Amphetamine (t=30 min)
# Rats dosed with either vehicle, (+)-α-DHTBZ 0.5 mg/kg, (+)-α-DHTBZ 1 mg/kg, (+)-α-DHTBZ 1.5 mg/kg, (+)-α-DHTBZ 2 mg/kg or Risperidone 1 mg/kg were subjected to LMA testing first for 30 min and then for 60 minutes after vehicle or amphetamine challenge. Resulting locomotor activity was evaluated in 3 min bins and as a total over the testing period.
# Rats dosed with either vehicle, (+)-α-DHTBZ 0.5 mg/kg, (+)-α-DHTBZ 1 mg/kg, (+)-α-DHTBZ 1.5 mg/kg, (+)-α-DHTBZ 2 mg/kg or Risperidone 1 mg/kg were subjected to LMA testing first for 30 min and then for 60 minutes after vehicle or amphetamine challenge. Resulting stereotypic activity was evaluated in 3 min bins and as a total over the testing period. […]
# [8] = molecular target: Chromaffin Granule Monoamine Transporter (Bos taurus, UniProt Q27963); settings: racemic α versus racemic β, in vitro; cited from earlier work
# Chain of Chromaffin Granule Monoamine Transporter (Q27963 whole entry): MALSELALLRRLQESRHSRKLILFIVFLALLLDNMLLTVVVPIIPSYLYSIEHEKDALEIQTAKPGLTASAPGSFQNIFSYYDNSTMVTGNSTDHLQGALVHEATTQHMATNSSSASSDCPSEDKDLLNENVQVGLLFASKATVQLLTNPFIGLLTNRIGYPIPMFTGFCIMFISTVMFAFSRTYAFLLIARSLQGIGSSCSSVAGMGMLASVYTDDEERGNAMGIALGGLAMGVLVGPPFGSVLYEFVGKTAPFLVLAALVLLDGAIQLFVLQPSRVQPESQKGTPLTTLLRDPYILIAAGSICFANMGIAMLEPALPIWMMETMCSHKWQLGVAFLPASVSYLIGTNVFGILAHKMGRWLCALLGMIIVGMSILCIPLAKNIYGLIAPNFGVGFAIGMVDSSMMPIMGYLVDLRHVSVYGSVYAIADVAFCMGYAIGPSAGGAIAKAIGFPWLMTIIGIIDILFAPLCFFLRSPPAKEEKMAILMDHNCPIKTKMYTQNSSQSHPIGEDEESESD
molecule,measurement,setting,value
"COc1cc2c(cc1OC)[C@H]1C[C@@H](O)[C@H](CC(C)C)CN1CC2.Cl [HCl salt form A, (+)-α-dihydrotetrabenazine hydrochloride]",polymorphism,[1],undesirable polymorphism
same,crystalline form after stirring in slurry (XRPD),[1]; aqueous slurry,conversion to a different (by XRPD) crystalline form
same,equilibrium solubility in water,[2],203 mg/mL
same,solubility thermodynamic,[2],203 mg/mL
same,TGA weight loss,[3],No weight loss
COc1cc2c(cc1OC)[C@H]1C[C@@H](OC(=O)[C@@H](N)C(C)C)[C@H](CC(C)C)CN1CC2 [Valbenazine],improvement scored with AIMS,[4]; Valbenazine 50 mg/day,did not show any significant signs of improvement
same,reduction of symptoms (AIMS),[4]; Valbenazine 100 mg/day,some reduction of symptoms
same,Abnormal Involuntary Movement Score,[5],significant improvement
COc1cc2c(cc1OC)[C@H]1C[C@@H](O)[C@H](CC(C)C)CN1CC2.O=S(=O)(O)c1ccccc1 [benzenesulphonate salt],polymorphism,[1],no apparent polymorphism
same,crystalline form after stirring in slurry (XRPD),"[1]; water, ethanol and ethyl acetate slurry",remained unchanged
same,moisture uptake,[6]; 60% relative humidity,0.2 wt %
same,moisture uptake,[6]; 90% relative humidity,1.7 wt %
same,hygroscopicity,[6]; gravimetric moisture-sorption,slightly hygroscopic
same,equilibrium solubility in water,"[2]; water, measured by HPLC",2.20 mg/mL
same,TGA weight loss,[3],No weight loss
same,thermal stability,[3]; from DSC and TGA,good thermal stability
"Cc1nc2n(c(=O)c1CCN1CCC(c3noc4cc(F)ccc34)CC1)CCCC2 [risperidone, reference compound]",total movement versus vehicle,[7],reduced total movement
same,total stereotypic behaviour versus vehicle,[7],reduced total stereotypic behaviour
same,total distance travelled compared to vehicle-amphetamine group,"amphetamine-induced rats; Study 1, 1 mg/kg",lower locomotor activity
same,total stereotypic behaviour compared to vehicle-amphetamine group,"amphetamine-induced rats; Study 1, 1 mg/kg",significantly different; also recorded: reduced stereotypic behaviour
same,total distance travelled compared to vehicle-amphetamine group,"amphetamine-induced rats; Study 2, 1 mg/kg",lower locomotor activity
same,total stereotypic behaviour compared to vehicle-amphetamine group,"amphetamine-induced rats; Study 2, 1 mg/kg",significantly different; also recorded: reduced stereotypic behaviour
α-dihydrotetrabenazine,higher affinity than the β-isomer,[8],3- to 4 fold
